Laboratory results reported in ChEMBL document CHEMBL1201862, “PubChem BioAssay data set” (2004).
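Assay format: 96-well plates, 48-hour exposure. GI50 marks 50% less growth.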 Activity calls are given as the source filed them. Cut-off read from the data, not from the text of the source: active = GI50 up to about 1.1 µM and inactive = higher.

Tests used:
Test in all cases: inhibition of tumour cell growth, NCI panel, 48 h
[1] = test system: SN12C
[2] = test system: HL-60
[3] = test system: HCT-116
[4] = test system: IGROV-1
[5] = test system: OVCAR-4
[6] = test system: NCI-H23
[7] = test system: EKVX
[8] = test system: M14
[9] = test system: SNB-75
[10] = test system: K562
[11] = test system: A549
[12] = test system: UO-31
[13] = test system: MDA-N
[14] = test system: A498
[15] = test system: HCC 2998
[16] = test system: MDA-MB-435
[17] = test system: KM12
[18] = test system: SK-OV-3
[19] = test system: DU-145
[20] = test system: SF-295
[21] = test system: NCI/ADR-RES
[22] = test system: NCI-H522
[23] = test system: T47D
[24] = test system: NCI-H226
[25] = test system: Malme-3M
[26] = test system: SK-MEL-28
[27] = test system: SK-MEL-5
[28] = test system: MCF7
[29] = test system: OVCAR-5
[30] = test system: MDA-MB-231
[31] = test system: BT-549
[32] = test system: CCRF-CEM
[33] = test system: HT-29
[34] = test system: UACC-62
[35] = test system: Hs-578T
[36] = test system: HOP-62
[37] = test system: SK-MEL-2
[38] = test system: NCI-H460
[39] = test system: ACHN
[40] = test system: UACC-257
[41] = test system: SF-539
[42] = test system: SNB-19
[43] = test system: LOX IMVI
[44] = test system: CAKI-1
[45] = test system: MOLT-4
[46] = test system: COLO 205
[47] = test system: U-251
[48] = test system: SF-268
[49] = test system: 786-0
[50] = test system: PC-3
[51] = test system: SR
[52] = test system: OVCAR-3
[53] = test system: OVCAR-8
[54] = test system: RPMI-8226
[55] = test system: HOP-92
[56] = test system: HCT-15
[57] = test system: TK-10
[58] = test system: SW-620
[59] = test system: RXF 393

COC(=O)C1CCC(=O)N1C(c1ccc(OC)cc1)c1ccc(OC)cc1 (stereo unspecified)
GI50 [1]: > 100 µM (inactive) | GI50 [2]: > 100 µM (inactive) | GI50 [3]: > 100 µM (inactive) | GI50 [4]: > 100 µM (inactive) | GI50 [5]: > 100 µM (inactive) | GI50 [6]: > 100 µM (inactive) | GI50 [7]: > 100 µM (inactive) | GI50 [8]: > 100 µM (inactive) | GI50 [9]: > 100 µM (inactive) | GI50 [10]: > 100 µM (inactive) | GI50 [11]: > 100 µM (inactive) | GI50 [12]: > 100 µM (inactive) | GI50 [13]: > 100 µM (inactive) | GI50 [14]: > 100 µM (inactive) | GI50 [15]: > 100 µM (inactive) | GI50 [16]: > 100 µM (inactive) | GI50 [17]: > 100 µM (inactive) | GI50 [18]: > 100 µM (inactive) | GI50 [19]: > 100 µM (inactive) | GI50 [20]: > 100 µM (inactive) | GI50 [21]: > 100 µM (inactive) | GI50 [22]: > 100 µM (inactive) | GI50 [23]: 78.9 µM (inactive) | GI50 [24]: > 100 µM (inactive) | GI50 [25]: > 100 µM (inactive) | GI50 [26]: > 100 µM (inactive) | GI50 [27]: > 100 µM (inactive) | GI50 [28]: > 100 µM (inactive) | GI50 [29]: > 100 µM (inactive) | GI50 [30]: > 100 µM (inactive) | GI50 [31]: > 100 µM (inactive) | GI50 [32]: > 100 µM (inactive) | GI50 [33]: > 100 µM (inactive) | GI50 [34]: > 100 µM (inactive) | GI50 [35]: > 100 µM (inactive) | GI50 [36]: > 100 µM (inactive) | GI50 [37]: > 100 µM (inactive) | GI50 [38]: > 100 µM (inactive) | GI50 [39]: > 100 µM (inactive) | GI50 [40]: > 100 µM (inactive) | GI50 [41]: > 100 µM (inactive) | GI50 [42]: > 100 µM (inactive) | GI50 [43]: > 100 µM (inactive) | GI50 [44]: > 100 µM (inactive) | GI50 [45]: > 100 µM (inactive) | GI50 [46]: > 100 µM (inactive) | GI50 [47]: > 100 µM (inactive) | GI50 [48]: > 100 µM (inactive) | GI50 [49]: > 100 µM (inactive) | GI50 [50]: > 100 µM (inactive) | GI50 [51]: > 100 µM (inactive) | GI50 [52]: > 100 µM (inactive) | GI50 [53]: > 100 µM (inactive) | GI50 [54]: > 100 µM (inactive) | GI50 [55]: > 100 µM (inactive) | GI50 [56]: > 100 µM | GI50 [57]: > 100 µM (inactive) | GI50 [58]: > 100 µM (inactive)

N=C(N)SC(c1ccccc1)c1ccccc1
GI50 [1]: 16 µM (inactive) | GI50 [2]: 17.1 µM (inactive) | GI50 [3]: 12.2 µM (inactive) | GI50 [4]: 18.5 µM (inactive) | GI50 [5]: 18.3 µM (inactive) | GI50 [6]: 13 µM (inactive) | GI50 [7]: 15 µM (inactive) | GI50 [8]: 11.4 µM (inactive) | GI50 [59]: 6.52 µM (inactive) | GI50 [10]: 22.4 µM (inactive) | GI50 [11]: 25.2 µM (inactive) | GI50 [12]: 11.2 µM (inactive) | GI50 [13]: 13.6 µM (inactive) | GI50 [14]: 17.3 µM (inactive) | GI50 [15]: 6.18 µM (inactive) | GI50 [16]: 12.6 µM (inactive) | GI50 [17]: 16.2 µM (inactive) | GI50 [18]: 32.3 µM (inactive) | GI50 [19]: 12.2 µM (inactive) | GI50 [20]: 16.9 µM (inactive) | GI50 [21]: 17.2 µM (inactive) | GI50 [22]: 13.2 µM (inactive) | GI50 [23]: 6.32 µM (inactive) | GI50 [24]: 33.8 µM (inactive) | GI50 [25]: 18.6 µM (inactive) | GI50 [26]: 4.84 µM (inactive) | GI50 [27]: 17.3 µM (inactive) | GI50 [28]: 15.4 µM (inactive) | GI50 [29]: 14.2 µM (inactive) | GI50 [30]: 15.2 µM (inactive) | GI50 [31]: 17.6 µM (inactive) | GI50 [32]: 10.5 µM (inactive) | GI50 [33]: 13.3 µM (inactive) | GI50 [34]: 16 µM (inactive) | GI50 [35]: 27.1 µM (inactive) | GI50 [36]: 19.6 µM (inactive) | GI50 [37]: 15 µM (inactive) | GI50 [38]: 16.6 µM (inactive) | GI50 [39]: 14.9 µM (inactive) | GI50 [40]: 14.2 µM (inactive) | GI50 [41]: 20.8 µM (inactive) | GI50 [42]: 28.1 µM (inactive) | GI50 [43]: 15.2 µM (inactive) | GI50 [44]: 13.5 µM (inactive) | GI50 [45]: 15.7 µM (inactive) | GI50 [46]: 21.8 µM (inactive) | GI50 [47]: 15.3 µM (inactive) | GI50 [48]: 22.6 µM (inactive) | GI50 [49]: 12.6 µM (inactive) | GI50 [50]: 14.3 µM (inactive) | GI50 [51]: 24 µM (inactive) | GI50 [52]: 14.2 µM (inactive) | GI50 [53]: 15.3 µM (inactive) | GI50 [54]: 10.2 µM (inactive) | GI50 [55]: 6.87 µM (inactive) | GI50 [56]: 16.4 µM | GI50 [57]: 14.5 µM (inactive) | GI50 [58]: 16.8 µM (inactive)
